The source of these data is patent publication US12686673B2 (Blueprint Medicines Corporation, priority 2020, dated 2026).

What all share (assay type): cell-based
Experiment [1] concerns the target EGFR(D770_N771insSVD) expressing Ba/F3 stable cell line (Homo sapiens, UniProt P00533, DUP768-770, cells depend on it). The experiment is described as follows: Cellular proliferation (Alamar Blue) assay, EGFR D770_N771insSVD Ba/F3. The following applies: 72 hr, read-out: D770 IC50. In outline: (§1)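 Ba/F3 stable lines (15,000 cells/well, RPMI + 10% FBS) seeded 16–18 h, then treated 72 h at 37 °C with compound, final 10–0.0005 μM in 3-fold dilutions. Viability read by Alamar Blue after 3 h incubation.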

Another experiment concerns A431 cells. Kind of experiment: Cellular proliferation (Alamar Blue) assay, A431.
Experiment [2] concerns the target EGFR (A767_dupASV) expressing Ba/F3 stable cell line (Homo sapiens, UniProt P00533, DUP767-769, cells depend on it). Kind of experiment: Cellular proliferation (Alamar Blue) assay, EGFR A767_dupASV Ba/F3. The following applies: 72 hr, read-out: A767 IC50. In outline: as §1
On the technique in general: Alamar Blue is a resazurin reagent that responds to reducing activity.

The target in experiment [3] is HER2 (A775_G776insYVMA) expressing Ba/F3 stable cell line (Homo sapiens, UniProt P04626, DUP772-775, cells depend on it). Kind of experiment: Cellular proliferation (Alamar Blue) assay, HER2 A775_G776insYVMA Ba/F3. The following applies: 72 hr, read-out: YVMA IC50. Here is the method: • 1. EGFR(D770_N771insSVD) expressing Ba/F3 stable cell line • 2. EGFR (A767_dupASV) expressing Ba/F3 stable cell line • 3. A431 cells • 4. EGFR (H773insNPH) expressing Ba/F3 stable cell line • 5. HER2 (A775_G776insYVMA) expressing Ba/F3 stable cell line Assay Procedure: • 1. Seed cells at 5000 for A431 and 15,000 cells for Ba/F3 in 100 μL/well in complete media (for A431: DMEM with […] and for Ba/F3 cells: RPMI with 10% FBS) in 96-well tissue culture plate. Leave outer wells without cells for background measurements. Incubate at 37 degree Celsius in […] humidified incubator for 16-18 hours. • 2. Add 0.025 ml of 5× concentration compound dilution or DMSO control. Final compound concentration range is 10-0.0005 μM prepared in 3-fold serial dilutions. Incubate for 72 hr at 37 degree Celsius in […] humidified incubator. • 3. Add 0.0125 ml Alamar Blue™ reagent to each well with multi-channel pipette and tap gently on each side of the plate to mix. Incubate for 3 hours at 37 degree Celsius in 5% CO2 humidified incubator. • 4. […] Data analysis was performed using XLfit 5.5.0.5.

Where [4] appears, read: Homo sapiens, A-431; A431 cells, Alamar Blue, 72 hr; read-out: A431 IC50.
[5] abbreviates: Homo sapiens, A-431; A431 cells, 72 hr, Alamar Blue; read-out: A431 IC50.

Counter-ions that a name gives are not always drawn. Like-named read-outs stand apart in the source and are kept apart here.

EGFR (A767_dupASV) expressing Ba/F3 stable cell line, sequence (P00533 with tags, fused parts or gaps DUP767-769): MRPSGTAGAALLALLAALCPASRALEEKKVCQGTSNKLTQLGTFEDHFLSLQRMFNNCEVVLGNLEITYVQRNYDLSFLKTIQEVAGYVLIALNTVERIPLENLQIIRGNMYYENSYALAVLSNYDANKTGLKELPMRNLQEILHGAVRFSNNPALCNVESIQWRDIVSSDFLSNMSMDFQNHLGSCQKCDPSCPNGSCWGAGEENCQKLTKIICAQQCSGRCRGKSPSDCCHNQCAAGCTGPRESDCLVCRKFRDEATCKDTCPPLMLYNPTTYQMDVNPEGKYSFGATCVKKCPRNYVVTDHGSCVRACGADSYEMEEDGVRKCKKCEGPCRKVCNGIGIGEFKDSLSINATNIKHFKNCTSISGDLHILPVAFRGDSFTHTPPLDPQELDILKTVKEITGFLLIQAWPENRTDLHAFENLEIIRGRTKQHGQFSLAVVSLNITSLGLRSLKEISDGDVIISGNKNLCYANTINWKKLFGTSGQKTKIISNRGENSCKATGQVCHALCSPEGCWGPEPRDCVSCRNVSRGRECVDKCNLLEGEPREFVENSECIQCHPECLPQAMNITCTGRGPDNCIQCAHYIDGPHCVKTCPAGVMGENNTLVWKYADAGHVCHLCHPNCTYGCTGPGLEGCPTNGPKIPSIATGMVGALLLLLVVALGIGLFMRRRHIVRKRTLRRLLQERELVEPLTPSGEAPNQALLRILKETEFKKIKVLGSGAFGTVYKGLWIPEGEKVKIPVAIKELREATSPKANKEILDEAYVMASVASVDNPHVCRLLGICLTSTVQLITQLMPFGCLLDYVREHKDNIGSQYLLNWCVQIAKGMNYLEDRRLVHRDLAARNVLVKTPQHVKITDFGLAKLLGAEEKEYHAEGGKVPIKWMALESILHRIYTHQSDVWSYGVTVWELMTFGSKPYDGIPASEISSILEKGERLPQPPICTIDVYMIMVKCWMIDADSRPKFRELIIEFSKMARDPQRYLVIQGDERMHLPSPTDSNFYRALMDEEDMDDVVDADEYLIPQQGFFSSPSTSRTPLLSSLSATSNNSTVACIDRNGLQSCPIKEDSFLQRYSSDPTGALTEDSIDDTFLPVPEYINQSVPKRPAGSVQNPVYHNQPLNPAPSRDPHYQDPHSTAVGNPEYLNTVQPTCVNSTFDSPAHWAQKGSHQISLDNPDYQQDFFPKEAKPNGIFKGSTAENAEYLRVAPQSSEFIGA
HER2 (A775_G776insYVMA) expressing Ba/F3 stable cell line, sequence (P04626 with tags, fused parts or gaps DUP772-775): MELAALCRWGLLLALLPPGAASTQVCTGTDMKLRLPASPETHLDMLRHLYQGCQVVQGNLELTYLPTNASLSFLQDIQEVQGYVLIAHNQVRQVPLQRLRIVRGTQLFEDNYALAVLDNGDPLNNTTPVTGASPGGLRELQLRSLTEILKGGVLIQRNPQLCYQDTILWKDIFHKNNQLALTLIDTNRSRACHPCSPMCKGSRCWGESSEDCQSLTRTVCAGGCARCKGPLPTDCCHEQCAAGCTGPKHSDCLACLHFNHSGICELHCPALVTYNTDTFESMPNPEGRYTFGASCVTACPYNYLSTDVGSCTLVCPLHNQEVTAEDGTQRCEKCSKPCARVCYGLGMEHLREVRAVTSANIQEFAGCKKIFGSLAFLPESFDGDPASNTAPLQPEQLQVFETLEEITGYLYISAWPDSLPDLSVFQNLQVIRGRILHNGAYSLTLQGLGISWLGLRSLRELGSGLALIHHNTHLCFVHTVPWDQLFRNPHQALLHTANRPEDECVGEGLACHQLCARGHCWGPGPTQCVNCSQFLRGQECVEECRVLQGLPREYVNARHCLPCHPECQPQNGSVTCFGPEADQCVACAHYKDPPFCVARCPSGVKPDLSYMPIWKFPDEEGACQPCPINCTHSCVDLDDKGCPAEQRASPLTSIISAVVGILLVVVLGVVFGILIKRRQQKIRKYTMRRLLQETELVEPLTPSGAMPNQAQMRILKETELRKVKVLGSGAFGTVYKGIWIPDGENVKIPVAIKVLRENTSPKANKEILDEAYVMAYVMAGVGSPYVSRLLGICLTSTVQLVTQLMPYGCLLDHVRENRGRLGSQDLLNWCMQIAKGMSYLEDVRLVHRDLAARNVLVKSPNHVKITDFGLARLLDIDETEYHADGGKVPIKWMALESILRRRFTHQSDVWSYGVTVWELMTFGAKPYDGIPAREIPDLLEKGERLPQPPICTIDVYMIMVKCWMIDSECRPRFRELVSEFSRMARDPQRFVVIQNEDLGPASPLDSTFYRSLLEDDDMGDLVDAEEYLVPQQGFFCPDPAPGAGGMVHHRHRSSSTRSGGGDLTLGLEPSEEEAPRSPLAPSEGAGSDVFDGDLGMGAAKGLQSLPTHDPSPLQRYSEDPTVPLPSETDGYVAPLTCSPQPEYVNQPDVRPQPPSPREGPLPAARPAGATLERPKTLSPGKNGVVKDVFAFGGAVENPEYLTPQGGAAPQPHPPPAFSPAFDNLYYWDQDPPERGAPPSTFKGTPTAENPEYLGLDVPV
EGFR(D770_N771insSVD) expressing Ba/F3 stable cell line, sequence (P00533 with tags, fused parts or gaps DUP768-770): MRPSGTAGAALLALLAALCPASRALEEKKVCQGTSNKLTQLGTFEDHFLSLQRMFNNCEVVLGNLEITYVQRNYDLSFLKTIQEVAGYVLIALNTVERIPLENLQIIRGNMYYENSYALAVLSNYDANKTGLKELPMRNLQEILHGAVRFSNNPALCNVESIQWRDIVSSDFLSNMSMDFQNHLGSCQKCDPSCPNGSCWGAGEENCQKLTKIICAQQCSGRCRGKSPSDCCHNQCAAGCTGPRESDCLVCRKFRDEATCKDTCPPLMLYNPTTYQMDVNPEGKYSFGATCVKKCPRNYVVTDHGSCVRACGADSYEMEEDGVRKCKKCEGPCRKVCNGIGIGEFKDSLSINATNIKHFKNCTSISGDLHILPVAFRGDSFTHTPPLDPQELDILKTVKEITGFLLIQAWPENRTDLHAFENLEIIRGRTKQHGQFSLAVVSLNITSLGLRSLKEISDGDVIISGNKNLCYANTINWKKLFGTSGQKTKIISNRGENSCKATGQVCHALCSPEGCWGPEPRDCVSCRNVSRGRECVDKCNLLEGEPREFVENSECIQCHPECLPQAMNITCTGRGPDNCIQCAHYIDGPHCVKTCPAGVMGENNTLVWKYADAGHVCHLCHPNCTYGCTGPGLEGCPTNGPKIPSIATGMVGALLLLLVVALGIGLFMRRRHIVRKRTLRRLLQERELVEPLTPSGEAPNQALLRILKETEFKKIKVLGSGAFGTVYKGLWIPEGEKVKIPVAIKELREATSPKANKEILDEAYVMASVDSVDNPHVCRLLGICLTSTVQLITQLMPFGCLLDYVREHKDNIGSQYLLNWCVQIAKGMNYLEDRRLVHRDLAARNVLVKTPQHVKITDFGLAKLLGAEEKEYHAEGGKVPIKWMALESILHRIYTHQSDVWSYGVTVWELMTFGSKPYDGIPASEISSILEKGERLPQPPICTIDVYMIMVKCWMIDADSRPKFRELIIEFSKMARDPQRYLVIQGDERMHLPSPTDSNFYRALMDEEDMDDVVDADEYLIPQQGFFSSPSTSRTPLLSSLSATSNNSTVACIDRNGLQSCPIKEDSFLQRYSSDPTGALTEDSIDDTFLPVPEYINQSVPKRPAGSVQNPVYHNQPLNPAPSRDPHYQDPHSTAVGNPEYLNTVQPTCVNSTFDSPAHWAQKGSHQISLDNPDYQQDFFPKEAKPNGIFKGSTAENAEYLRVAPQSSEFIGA

In general, IC50 refers to the concentration needed to halve the response being measured. For the compound `CN(C)C/C=C/C(=O)Nc1ccc(F)c(Nc2nc(Nc3cnn(C4CCC(O)CC4)c3)ncc2Cl)c1` (stereo not drawn) [Compound 5, (E)-N-(3-((5-chloro-2-((1-(4-hydroxycyclohexyl)-1H-pyrazol-4-yl)amino)pyrimidin-4-yl)amino)-4-fluorophenyl)-4-(dimethylamino)but-2-enamide], the GI50 in experiment [1] turned out to be 5.58 µM; in experiment [2], 7.38 µM; in experiment [3], 4.28 µM. For the same compound, the IC50 in the experiment on A431 cells (setting [4]) was more than 10 µM.
For `COC/C=C/C(=O)Nc1ccc(F)c(Nc2nc(Nc3cnn(C)c3)ncc2Cl)c1` [Compound 6, (E)-N-(3-((5-chloro-2-((1-methyl-1H-pyrazol-4-yl)amino)pyrimidin-4-yl)amino)-4-fluorophenyl)-4-methoxybut-2-enamide] the same measures were more than 10 µM, more than 10 µM, 9.01 µM and more than 10 µM.
As to `Cn1cc(Nc2ncc(Cl)c(Nc3cc(NC(=O)/C=C/CF)ccc3F)n2)cn1` [Compound 7, (E)-N-(3-((5-chloro-2-((1-methyl-1H-pyrazol-4-yl)amino)pyrimidin-4-yl)amino)-4-fluorophenyl)-4-fluorobut-2-enamide], the GI50 is 3.27 µM in experiment [1], 0.995 µM in experiment [2] and 3.22 µM in experiment [3]. The IC50 in the experiment with A431 cells (setting [4]) was 8.73 µM.
For the compound `C=CC(=O)Nc1ccc(Cl)c(Nc2nc(Nc3cnn(C)c3)ncc2Cl)c1` [Compound 8, N-(4-chloro-3-((5-chloro-2-((1-methyl-1H-pyrazol-4-yl)amino)pyrimidin-4-yl)amino)phenyl)acrylamide], the GI50 in experiment [1] was found to be 7.45 µM; in experiment [2] it was 7.58 µM; in experiment [3] it was 4.99 µM. The IC50 in the experiment with A431 cells (setting [4]) was found to be 8.59 µM.
In the case of `CN(C)C/C=C/C(=O)Nc1ccc(Cl)c(Nc2nc(Nc3cnn(C)c3)ncc2Cl)c1` [Compound 9, (E)-N-(4-chloro-3-((5-chloro-2-((1-methyl-1H-pyrazol-4-yl)amino)pyrimidin-4-yl)amino)phenyl)-4-(dimethylamino)but-2-enamide], the GI50 was 9.48 µM in experiment [1], more than 10 µM in experiment [2] and 7.49 µM in experiment [3]. For the same compound, the IC50 in the experiment on A431 cells (setting [4]) is 8.03 µM.
For `C/C=C/C(=O)Nc1ccc(F)c(Nc2nc(Nc3cnn(C)c3)ncc2Cl)c1` [Compound 11, (E)-N-(3-((5-chloro-2-((1-methyl-1H-pyrazol-4-yl)amino)pyrimidin-4-yl)amino)-4-fluorophenyl)but-2-enamide], in that order: more than 10 µM, more than 10 µM, 4.72 µM and more than 10 µM.
For `C=C(C)C(=O)Nc1ccc(F)c(Nc2nc(Nc3cnn(C)c3)ncc2Cl)c1` [Compound 12, N-(3-((5-chloro-2-((1-methyl-1H-pyrazol-4-yl)amino)pyrimidin-4-yl)amino)-4-fluorophenyl)methacrylamide], in that order: more than 10 µM, more than 10 µM, 7.03 µM and more than 10 µM.
For `C=CC(=O)Nc1ccc(OC)c(Nc2nc(Nc3cnn(C)c3)ncc2Cl)c1` [Compound 13, N-(3-((5-chloro-2-((1-methyl-1H-pyrazol-4-yl)amino)pyrimidin-4-yl)amino)-4-methoxyphenyl)acrylamide] the same measures were more than 10 µM, more than 10 µM, more than 10 µM and more than 10 µM.
As to `C=CC(=O)Nc1ccc(F)c(Nc2nc(Nc3cnn(CCO)c3)ncc2Cl)c1` [Compound 15, N-(3-((5-chloro-2-((1-(2-hydroxyethyl)-1H-pyrazol-4-yl)amino)pyrimidin-4-yl)amino)-4-fluorophenyl)acrylamide], the GI50 in experiment [1] stood at 0.373 µM; in experiment [2] it was 0.371 µM; in experiment [3], 0.543 µM. Further, the IC50 in the experiment with A431 cells (setting [4]) is 4.22 µM.
For `CN(C)C/C=C/C(=O)Nc1ccc(F)c(Nc2nc(Nc3cnn(CCO)c3)ncc2Cl)c1` [Compound 16, (E)-N-(3-((5-chloro-2-((1-(2-hydroxyethyl)-1H-pyrazol-4-yl)amino)pyrimidin-4-yl)amino)-4-fluorophenyl)-4-(dimethylamino)but-2-enamide] the same measures were 9.06 µM, 8.84 µM, 1.7 µM and 9.04 µM.
For `CN(C)C/C=C/C(=O)Nc1cccc(Nc2nc(Nc3cnn(C)c3)ncc2CNc2ccccc2)c1` [Compound 17, (E)-4-(dimethylamino)-N-(3-((2-((1-methyl-1H-pyrazol-4-yl)amino)-5-((phenylamino)methyl)pyrimidin-4-yl)amino)phenyl)but-2-enamide], in that order: 1.53 µM, 1.02 µM, 1.88 µM and 7.74 µM.
For `C=CC(=O)Nc1cccc(Nc2nc(Nc3cnn(C)c3)ncc2CN(C(C)=O)c2ccccc2)c1` [Compound 18], in that order: more than 10 µM, 7.16 µM, more than 10 µM and more than 10 µM.
Regarding `C=CC(=O)Nc1cccc(Nc2nc(Nc3cnn(C)c3)ncc2CN(C(C)=O)C(C)c2ccccc2)c1` (stereo not drawn) [Compound 19, N-(3-((2-((1-methyl-1H-pyrazol-4-yl)amino)-5-((N-(1-phenylethyl)acetamido)methyl)pyrimidin-4-yl)amino)phenyl)acrylamide], the GI50 in experiment [1], in experiment [2] and in experiment [3] was more than 10 µM in each case. Also, in the experiment on A431 cells (setting [4]), the IC50 was more than 10 µM.
`C=CC(=O)Nc1cccc(Nc2nc(Nc3cnn(C)c3)ncc2NS(=O)(=O)c2ccccc2)c1` [Compound 29, N-(3-((2-((1-methyl-1H-pyrazol-4-yl)amino)-5-(phenylsulfonamido)pyrimidin-4-yl)amino)phenyl)acrylamide]: the GI50 in experiment [1], in experiment [2] and in experiment [3] was more than 10 µM throughout. For the same compound, the IC50 with A431 cells (setting [4]) is more than 10 µM.
Turning to `C=CC(=O)Nc1cccc(Nc2nc(Nc3cnn(C)c3)ncc2-c2ccc(C(F)(F)F)cc2)c1F` [Compound 148, N-(2-fluoro-3-((2-((1-methyl-1H-pyrazol-4-yl)amino)-5-(4-(trifluoromethyl)phenyl)pyrimidin-4-yl)amino)phenyl)acrylamide trifluoroacetate], the IC50 with A431 cells (setting [4]) was 0.083 µM. For the same compound, the GI50 came out at 0.056 µM in experiment [2] and 0.349 µM in experiment [3].
`C=CC(=O)Nc1cccc(Nc2nc(Nc3cnn(C)c3)ncc2-c2ccc(Br)cc2)c1` [Compound 274, N-(3-((5-(4-bromophenyl)-2-((1-methyl-1H-pyrazol-4-yl)amino)pyrimidin-4-yl)amino)phenyl)acrylamide]: the GI50 in experiment [1] amounted to 0.029 µM; in experiment [3], 0.12 µM. Also, the IC50 in the experiment on A431 cells (setting [5]) was 0.022 µM.
On to `C=CC(=O)Nc1ccc(F)c(Nc2nc(Nc3ccc(N(C)CCN(C)C)cc3)ncc2Cl)c1` [Compound 288, N-(3-((5-chloro-2-((4-((2-(dimethylamino)ethyl)(methyl)amino)phenyl)amino)pyrimidin-4-yl)amino)-4-fluorophenyl)acrylamide], for which the IC50 in the experiment with A431 cells (setting [5]) worked out at 4.91 µM. Besides, the GI50 in experiment [3] was determined as 3.04 µM.
As for `C=CC(=O)Nc1cc(Br)cc(Nc2nc(Nc3cnn(C)c3)ncc2-c2ccc(C(F)(F)F)cc2)c1` [Compound 290, N-[3-bromo-5-({2-[(1-methyl-1H-pyrazol-4-yl)amino]-5-[4-(trifluoromethyl)phenyl]pyrimidin-4-yl}amino)phenyl]prop-2-enamide], the IC50 in the experiment with A431 cells (setting [5]) is more than 9.79 µM. Moreover, the GI50 in experiment [3] worked out at 2.92 µM.
Turning to `C=CC(=O)Nc1cc(Nc2nc(Nc3cnn(C)c3)ncc2Cl)cc(C(F)(F)F)c1` [Compound 291, N-(3-((5-chloro-2-((1-methyl-1H-pyrazol-4-yl)amino)pyrimidin-4-yl)amino)-5-(trifluoromethyl)phenyl)acrylamide], the IC50 with A431 cells (setting [5]) is more than 10 µM. Besides, the GI50 in experiment [3] amounted to 1.84 µM.
`C=CC(=O)Nc1ccc(Cl)c(Nc2nc(Nc3cnn(C)c3)ncc2-c2ccc(Br)cc2)c1` [Compound 292, N-(3-((5-(4-bromophenyl)-2-((1-methyl-1H-pyrazol-4-yl)amino)pyrimidin-4-yl)amino)-4-chlorophenyl)acrylamide]: the IC50 with A431 cells (setting [5]) was 1.02 µM. Also, the GI50 in experiment [3] came out at 8.83 µM.
For `C=CC(=O)Nc1cc(Nc2nc(Nc3cnn(C)c3)ncc2Cl)cc2ccccc12` [Compound 297, N-(3-((5-chloro-2-((1-methyl-1H-pyrazol-4-yl)amino)pyrimidin-4-yl)amino)naphthalen-1-yl)acrylamide] the same measures were 7.79 µM and more than 10 µM.
